Laboratory results as given in patent US12108756B2, “Photodynamic method of inhibiting growth of a microbial plant pathogen” (priority 2019, dated 2024).

Key:
[1] = system: E. coli; test: E. coli kill with photosensitizers with and without copper under broad-spectrum Reptile Light; format: cell-based, Escherichia coli; conditions: for effectiveness as photosensitizer: as shown in Example 2, under the test conditions; for log reduction: Reptile Light 8,520 Lux (26 W/m2)
Procedure: In this example we compare different photosensitizers (50 μM in water) in combination with and without copper sulfate. An agricultural adjuvant sticker spreader, Silwet® L-77 was also included at a 0.0125% concentration. The conditions experimental were the same as Example 1: E. coli as the test organism, using copper sulfate at 10 ppm, and a light exposure time of 30 minutes. However, in this test series we used a light source that reproduced the spectrum of sunlight, including UV. It is used to in terrariums for housing reptiles, some of which require a UV component in their light. It is referred to here as the Reptile Light (Zoo Med 2019).
In this example we also used the Reptile Light. In these tests the light intensity was 8,520 Lux, or 26 W/m2 (for comparison, this could be full daylight on a cloudy day, or a common light level in a greenhouse). […] Silwet (see Helena 2019) is an agricultural nonionic organosilicone surfactant adjuvant wetting and spreading agent commonly used with pesticides, also commonly known as a sticker spreader).
In this example we tested a commercial algicide product, Cutrine®, which contains copper ethanolamine (from the product label: Copper Ethanolamine Complex, Mixed (Mono CAS #14215-52-2 and Tri CAS #82027-59-6) 27.9%; OTHER INGREDIENTS 72.1% TOTAL 100.0% Metallic copper equivalent, 9%; Contains 0.909 lbs. of elemental copper per gallon) (EPA Reg. No. 8959-10). Copper ethanolamine is effective in keeping the copper salt in solution at neutral pH. The tests were done as above, under the reptile light for 30 minutes.
The above tests using CuSO4 at 10 ppm is equivalent to 3.98 ppm copper. We initially tested Cutrine® at a low and a high concentration, where the low concentration is adjusted to have approximately 3.98 ppm copper as before, and the high concentration is 39.8 ppm copper (same copper concentration as 100 ppm CuSO4). We tested them with and without 18 ppm riboflavin. Again, tests were run in triplicate.

[2] = system: Escherichia coli (E. coli) bacteria (ATCC 25922); test: Photodynamic treatment of E. coli under blue LED light; colonies plated and reduction vs untreated control; format: cell-based; conditions: for % reduction: converted from log kill
Procedure: Tests were carried out with Escherichia coli (E. coli) bacteria (ATCC 25922) in which the organisms were exposed to varying test conditions. The light source for photoactivation was a blue LED light (HIGROW 2019) that was placed 7 cm from the container containing the E. coli. The photoactivator was riboflavin (Aldrich R7649, lot VVXBB4048V, purity 98.6%) at a concentration of 18 ppm. Copper sulfate was used at a concentration of 10 ppm (aqueous solution). The tests included a wetting agent Silwet® L-77 at a concentration of 0.0125%. Silwet® L-77 is a product of Helena Agri-Enterprises, LLC of Collierville, TN, and is a nonionic organosilicone surfactant co-polymer that has enhanced wetting and spreading characteristics when used in aqueous sprays. Silwet® L-77 has a CAS Registry Number of 27306-78-1. Each test was carried out for the prescribed time, which varied from 5 minutes to 30 minutes. At the end of the exposure time the bacteria were diluted and plated so that the colonies could be enumerated and the corresponding reduction determined by comparison with the untreated control.
We also carried out tests to evaluate the effect of light intensity. These tests used 10 ppm copper sulfate and 18 ppm riboflavin (aqueous solution) in a 15-minute exposure under the blue light, using neutral density filters to decrease the light intensity. The full light intensity at the 450 nm to 460 nm range was 353 W/m^2.

[3] = system: Xanthomonas hortorum pv. pelargonii; test: Reduction of Xanthomonas hortorum pv. pelargonii leaf spots on geranium plants in greenhouse; format: in vivo; conditions: single spray 24 hours before inoculation, leaf spots counted two weeks after inoculation
[4] = photosensitizer alone, 50 μM in water, Reptile Light, 30 minutes
[5] = photosensitizer alone, 50 μM in water, Reptile Light, 30 minutes, median (EY, RMP: average)
[6] = 10 ppm + Silwet (0.0125%), 30 minutes
[7] = 10 ppm alone, blue light, 30 minutes
[8] = 18 ppm alone, blue light, 30 minutes

Row | Compound | effectiveness as photosensitizer [1] | % kill [1, 4] | Log kill [1, 5] | log reduction [1, 6] | also measured
1 | Eosin Y [EY] | effective | 6.46% | 0.87 Log | – | –
2 | riboflavin monophosphate [RMP] | – | 3.17% | 0.042 Log | – | –
3 | O=C1OC2(c3ccccc31)c1cc(I)c(O)c(I)c1Oc1c2cc(I)c(O)c1I [ER, erythrosine] | effective | 25.88% | 0.13 Log | – | –
4 | O=S(=O)([O-])[O-].[Cu+2] [copper sulfate] | – | – | – | 0.13 log | % kill ([1]; 10 ppm alone, reptile lamp, 30 minutes): 26.04%; Log kill ([1]; 10 ppm alone, reptile lamp, 30 minutes, median value): 0.131 Log; log reduction ([1]; 40 ppm, 30 minutes): 0.13 log; log kill [2, 7]: 0.954 log; % reduction [2, 7]: 88.88%; log kill ([2]; 10 ppm, in the dark, 30 minutes): 0.226 log
5 | Cc1cc2nc3c(=O)[nH]c(=O)nc-3n(C[C@H](O)[C@H](O)[C@H](O)CO)c2cc1C [riboflavin] | most effective | 23.26% | 0.115 Log | 0.15 log | Log kill ([1]; 18 ppm alone, reptile lamp, 30 minutes): 0.115 Log; log reduction ([1]; 50 ppm, 1 hour): 1.6 log; log kill ([1]; riboflavin alone, reptile light, 30 minutes, from previous test data): < 1 log; effectiveness against leaf spots [3]: only partially effective; log kill [2, 8]: 0.83 log; % reduction [2, 8]: 85.208%; log kill ([2]; 18 ppm, in the dark): did not produce any measurable kill
6 | O=C1OC2(c3cc(I)c(O)c(I)c3Oc3c2cc(I)c(O)c3I)c2c(Cl)c(Cl)c(Cl)c(Cl)c21 [RB, Rose Bengal] | effective | 30.81% | 0.16 Log | – | –
